Assay results from ChEMBL document CHEMBL1140588, “Design and synthesis of potent amido- and benzyl-substituted cis-3-amino-4-(2-cyanopyrrolidide)pyrrolidinyl DPP-IV inhibitors” (Bioorg Med Chem Lett, 2007).

What was measured:
Dipeptidyl peptidase 8 = Dipeptidyl peptidase 8 (Homo sapiens, UniProt Q6V1X1); experiment: Inhibition of human DPP8
hERG (KCNH2) = hERG (KCNH2) (Homo sapiens, UniProt Q12809); experiment: Displacement of [3H]dofetilide from hERG at 10 uM; details: probe [3H]dofetilide, read-out: Activity
Sequence of hERG (KCNH2) (Q12809 whole entry): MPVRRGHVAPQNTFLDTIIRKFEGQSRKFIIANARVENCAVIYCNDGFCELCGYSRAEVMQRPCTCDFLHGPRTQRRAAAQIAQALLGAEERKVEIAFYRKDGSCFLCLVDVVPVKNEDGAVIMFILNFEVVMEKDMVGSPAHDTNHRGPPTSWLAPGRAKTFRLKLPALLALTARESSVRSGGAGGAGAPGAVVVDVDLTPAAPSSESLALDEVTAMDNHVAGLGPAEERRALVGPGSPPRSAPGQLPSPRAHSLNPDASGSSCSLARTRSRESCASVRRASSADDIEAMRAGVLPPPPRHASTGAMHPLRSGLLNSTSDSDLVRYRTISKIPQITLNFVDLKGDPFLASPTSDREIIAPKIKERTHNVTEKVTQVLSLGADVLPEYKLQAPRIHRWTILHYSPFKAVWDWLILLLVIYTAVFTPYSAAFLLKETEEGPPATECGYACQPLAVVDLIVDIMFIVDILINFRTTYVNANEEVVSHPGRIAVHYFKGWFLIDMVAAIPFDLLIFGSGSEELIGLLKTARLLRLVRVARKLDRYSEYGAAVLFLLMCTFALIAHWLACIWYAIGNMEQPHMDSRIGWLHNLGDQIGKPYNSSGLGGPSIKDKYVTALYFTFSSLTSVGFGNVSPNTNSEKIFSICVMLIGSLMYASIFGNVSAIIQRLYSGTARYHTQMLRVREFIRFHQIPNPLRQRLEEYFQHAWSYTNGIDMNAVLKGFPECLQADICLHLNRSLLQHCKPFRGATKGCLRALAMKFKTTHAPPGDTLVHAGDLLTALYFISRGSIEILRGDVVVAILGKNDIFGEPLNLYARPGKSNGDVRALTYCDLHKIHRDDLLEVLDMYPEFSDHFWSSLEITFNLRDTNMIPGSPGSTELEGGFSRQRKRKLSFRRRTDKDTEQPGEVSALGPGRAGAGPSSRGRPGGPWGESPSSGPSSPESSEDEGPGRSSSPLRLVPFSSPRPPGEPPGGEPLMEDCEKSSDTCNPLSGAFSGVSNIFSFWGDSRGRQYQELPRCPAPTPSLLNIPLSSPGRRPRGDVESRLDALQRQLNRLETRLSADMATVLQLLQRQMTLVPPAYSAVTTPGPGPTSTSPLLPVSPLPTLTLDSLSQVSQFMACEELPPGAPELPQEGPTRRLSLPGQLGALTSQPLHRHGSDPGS

[1] = Bioavailability in Sprague-Dawley rat at 5 mg/kg, po; assay type: ADME, organism-based; details: in vivo
Rattus norvegicus [2] = experiment: Inhibition of DPP4 in Sprague-Dawley rat at 5 mg/kg, po between 4 to 6 hrs; assay type: functional; parameters: scale not given: the % may be the effect or the level left
[3] = molecular target: Voltage-gated inwardly rectifying potassium channel KCNH2 (Homo sapiens, UniProt Q12809); experiment: Inhibition of hERG by patch clamp assay; assay type: toxicity
Sequence of Voltage-gated inwardly rectifying potassium channel KCNH2 (Q12809 whole entry): as above

Rattus norvegicus [4] = species: Rattus norvegicus; experiment: Inhibition of DPP4 in Sprague-Dawley rat; assay type: functional
[5] = Plasma protein binding in Sprague-Dawley rat at 5 mg/kg, po; assay type: ADME, organism-based; parameters: dose 5 mg/kg, route oral; details: read-out: PB (converted)
Rattus norvegicus [6] = experiment: AUC(0 to infinity) in Sprague-Dawley rat at 5 mg/kg, po; assay type: ADME, organism-based, Plasma; parameters: time infinity, dose 5 mg/kg, route oral; details: in vivo
[7] = Half life in Sprague-Dawley rat at 5 mg/kg, po; assay type: ADME, organism-based; parameters: dose 5 mg/kg, route oral; details: in vivo
[8] = Cmax in Sprague-Dawley rat at 5 mg/kg, po; assay type: ADME, organism-based; parameters: dose 5 mg/kg, route oral; details: in vivo

Sequence of Dipeptidyl peptidase 8 (Q6V1X1 whole entry): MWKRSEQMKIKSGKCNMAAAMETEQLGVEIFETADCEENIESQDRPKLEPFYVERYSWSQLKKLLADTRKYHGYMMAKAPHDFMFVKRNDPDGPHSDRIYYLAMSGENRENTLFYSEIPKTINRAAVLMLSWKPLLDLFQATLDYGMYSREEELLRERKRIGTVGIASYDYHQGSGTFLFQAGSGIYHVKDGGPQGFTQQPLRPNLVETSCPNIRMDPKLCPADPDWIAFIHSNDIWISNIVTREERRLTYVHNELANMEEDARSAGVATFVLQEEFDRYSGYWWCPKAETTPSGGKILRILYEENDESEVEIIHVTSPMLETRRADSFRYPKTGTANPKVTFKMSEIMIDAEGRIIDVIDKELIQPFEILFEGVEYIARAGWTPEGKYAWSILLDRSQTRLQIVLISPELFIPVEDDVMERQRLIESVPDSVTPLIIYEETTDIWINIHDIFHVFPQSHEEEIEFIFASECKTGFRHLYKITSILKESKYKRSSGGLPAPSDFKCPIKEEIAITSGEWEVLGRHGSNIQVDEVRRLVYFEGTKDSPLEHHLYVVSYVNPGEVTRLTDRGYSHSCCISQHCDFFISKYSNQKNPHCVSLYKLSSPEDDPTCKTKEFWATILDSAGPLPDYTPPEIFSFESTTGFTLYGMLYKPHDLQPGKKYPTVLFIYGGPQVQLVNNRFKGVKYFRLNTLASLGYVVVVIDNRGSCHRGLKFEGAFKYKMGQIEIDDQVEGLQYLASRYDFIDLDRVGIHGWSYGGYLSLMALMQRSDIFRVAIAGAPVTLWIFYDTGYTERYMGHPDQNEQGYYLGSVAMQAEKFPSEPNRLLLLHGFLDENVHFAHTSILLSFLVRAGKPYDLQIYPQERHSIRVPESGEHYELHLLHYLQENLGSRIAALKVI

N#Cc1ccc(CN2C[C@H](N)[C@H](C(=O)N3CCC[C@H]3C#N)C2)cc1
IC50 (Dipeptidyl peptidase 8): 560 nM
inhibition at 10 µM (hERG (KCNH2)): 47%

Cn1nccc1-c1ccc(CN2C[C@H](N)[C@H](C(=O)N3CCC[C@H]3C#N)C2)cc1
IC50 (Dipeptidyl peptidase 8): 148 nM
inhibition at 10 µM (hERG (KCNH2)): 36%

Cc1ncn(-c2ccc(CN3C[C@H](N)[C@H](C(=O)N4CCC[C@H]4C#N)C3)cc2)n1
bioavailability [1]: 36%
IC50 (Dipeptidyl peptidase 8): 858 nM
inhibition at 10 µM (hERG (KCNH2)): 4%
Activity (Rattus norvegicus [2]): 51%

N#C[C@@H]1CCCN1C(=O)[C@@H]1CN(Cc2cnc3ccccc3c2)C[C@@H]1N
IC50 (Dipeptidyl peptidase 8): 3290 nM
inhibition at 10 µM (hERG (KCNH2)): 36%

N[C@H]1CN(C(=O)c2cc3ccccc3s2)C[C@H]1C(=O)N1CCCC1
inhibition at 10 µM (hERG (KCNH2)): 5%

N[C@H]1CN(C(=O)c2ccc3ccccc3c2)C[C@H]1C(=O)N1CCCC1
inhibition at 10 µM (hERG (KCNH2)): 4%

N#C[C@@H]1CCCN1C(=O)[C@@H]1CN(Cc2ccc(-c3cc[nH]n3)cc2)C[C@@H]1N
IC50 (Dipeptidyl peptidase 8): 326 nM
inhibition at 10 µM (hERG (KCNH2)): 65%

Cn1cc(-c2ccc(CN3C[C@H](N)[C@H](C(=O)N4CCC[C@H]4C#N)C3)cc2)cn1
IC50 (Dipeptidyl peptidase 8): 363 nM
inhibition at 10 µM (hERG (KCNH2)): 71%

N#C[C@@H]1CCCN1C(=O)[C@@H]1CN(Cc2ccc(-c3csnn3)cc2)C[C@@H]1N
IC50 (Dipeptidyl peptidase 8): 190 nM
inhibition at 10 µM (hERG (KCNH2)): 91%

N#Cc1ccc2c(c1)CCC2N1C[C@H](N)[C@H](C(=O)N2CCC[C@H]2C#N)C1 (some centres undefined)
inhibition at 10 µM (hERG (KCNH2)): 88%

N[C@H]1CN(C(=O)c2ccc(-n3cnnn3)cc2)C[C@H]1C(=O)N1CCCC1
inhibition at 10 µM (hERG (KCNH2)): 15%

CC(c1ccc(C#N)cc1)N1C[C@H](N)[C@H](C(=O)N2CCC[C@H]2C#N)C1 (some centres undefined)
IC50 [3]: 10000 nM
IC50 (Dipeptidyl peptidase 8): 1040 nM
inhibition at 10 µM (hERG (KCNH2)): 18%

N[C@H]1CN(C(=O)c2ccc3ncccc3c2)C[C@H]1C(=O)N1CCCC1
inhibition at 10 µM (hERG (KCNH2)): 19%

N[C@H]1CN(C(=O)c2cc3ccccc3cn2)C[C@H]1C(=O)N1CCCC1
inhibition at 10 µM (hERG (KCNH2)): 0.5%

N[C@H]1CN(C(=O)c2cnc3ccccc3c2)C[C@H]1C(=O)N1CCCC1
inhibition at 10 µM (hERG (KCNH2)): 9%

N[C@H]1CN(Cc2ccc(-n3cnnn3)cc2)C[C@H]1C(=O)N1CCCC1
inhibition at 10 µM (hERG (KCNH2)): 43%

N#Cc1cc(CN2C[C@H](N)[C@H](C(=O)N3CCCC3)C2)ccc1F
inhibition at 10 µM (hERG (KCNH2)): 9%

N[C@H]1CN(Cc2ccc(-c3csnn3)cc2)C[C@H]1C(=O)N1CCCC1
inhibition at 10 µM (hERG (KCNH2)): 84%

Cc1cc(-n2cncn2)ccc1CN1C[C@H](N)[C@H](C(=O)N2CCC[C@H]2C#N)C1
inhibition at 10 µM (hERG (KCNH2)): 62%

N[C@H]1CN(Cc2cnc3ccccc3c2)C[C@H]1C(=O)N1CCCC1
inhibition at 10 µM (hERG (KCNH2)): 32%

N#C[C@@H]1CCCN1C(=O)[C@@H]1CN(Cc2ccc(-n3cncn3)cc2)C[C@@H]1N
IC50 [3]: 1800 nM
IC50 (Dipeptidyl peptidase 8): 461 nM
inhibition at 10 µM (hERG (KCNH2)): 40%

CC(c1ccc([N+](=O)[O-])cc1)N1C[C@H](N)[C@H](C(=O)N2CCCC2)C1 (some centres undefined)
inhibition at 10 µM (hERG (KCNH2)): 13%

Cc1nnc(-c2ccc(CN3C[C@H](N)[C@H](C(=O)N4CCC[C@H]4C#N)C3)cc2)o1
IC50 [3]: 165000 nM
IC50 (Dipeptidyl peptidase 8): 704 nM
inhibition at 10 µM (hERG (KCNH2)): 4%

Cc1cc(CN2C[C@H](N)[C@H](C(=O)N3CCC[C@H]3C#N)C2)cc(C)c1C#N
IC50 [3]: 28900 nM
inhibition at 10 µM (hERG (KCNH2)): 21%

N#C[C@@H]1CCCN1C(=O)[C@@H]1CN(Cc2ccc(-n3nccn3)cc2)C[C@@H]1N
IC50 (Dipeptidyl peptidase 8): 247 nM
inhibition at 10 µM (hERG (KCNH2)): 49%

CC(c1ccc(-n2cncn2)cc1)N1C[C@H](N)[C@H](C(=O)N2CCC[C@H]2C#N)C1 (some centres undefined)
bioavailability [1]: 30.6%
Inhibition (Rattus norvegicus [4]): 86%
fraction unbound [5]: 0.77
AUC (Rattus norvegicus [6]): 7703 ng·h/mL
half-life [7]: 4.3 h
Cmax [8]: 1400 ng/mL
inhibition at 10 µM (hERG (KCNH2)): 7%

N#C[C@@H]1CCCN1C(=O)[C@@H]1CN(C2CCOc3ccccc32)C[C@@H]1N (some centres undefined)
inhibition at 10 µM (hERG (KCNH2)): 7%

N[C@H]1CN(C(=O)c2ccc(-n3cncn3)cc2)C[C@H]1C(=O)N1CCCC1
inhibition at 10 µM (hERG (KCNH2)): 14%

N[C@H]1CN(C(=O)c2cc3cc(Cl)ccc3o2)C[C@H]1C(=O)N1CCCC1
inhibition at 10 µM (hERG (KCNH2)): 14%

Cc1cc(CN2C[C@H](N)[C@H](C(=O)N3CCC[C@H]3C#N)C2)ccc1-n1cncn1
inhibition at 10 µM (hERG (KCNH2)): 17%

N[C@H]1CN(C(=O)c2cnc3ccccc3n2)C[C@H]1C(=O)N1CCCC1
IC50 [3]: > 300000 nM
inhibition at 10 µM (hERG (KCNH2)): 0.241%

N[C@H]1CN(Cc2ccc(F)c(F)c2)C[C@H]1C(=O)N1CCCC1
inhibition at 10 µM (hERG (KCNH2)): 19%

CCc1cc(CN2C[C@H](N)[C@H](C(=O)N3CCC[C@H]3C#N)C2)cc(CC)c1C#N
inhibition at 10 µM (hERG (KCNH2)): 3%

N#Cc1cc(CN2C[C@H](N)[C@H](C(=O)N3CCC[C@H]3C#N)C2)ccc1F
IC50 (Dipeptidyl peptidase 8): 922 nM
inhibition at 10 µM (hERG (KCNH2)): 10%
